From patent USRE39591E1, “6-O-substituted ketolides having antibacterial activity” (Abbott Laboratories, priority 1996, dated 2007)
Converted amounts (≈) assume the structure as drawn.

Tested on: up to 32 different microorganisms
Assay: in vitro antibacterial activity (MIC), agar dilution on Brain Heart Infusion (BHI) agar with Steers replicator
Format: cell-based
Settings: unit assumed
Summary of the method: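 Up to 32 strains were replicator-inoculated (1:100, or 1:10 for Micrococcus and Streptococcus) onto BHI agar plates holding serial compound dilutions and kept 20-24 h at 35-37° C. Plates were read visually against drug-free growth controls, with erythromycin A run alongside; MIC was the lowest concentration giving no growth, slight haze or sparse colonies.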

Row | SMILES | MIC (organism code AA) | MIC (organism code BB) | MIC (organism code CC) | MIC (organism code DD) | MIC (organism code FF) | MIC (organism code GG) | MIC (organism code HH) | MIC (organism code II) | MIC (organism code JJ) | MIC (organism code KK) | MIC (organism code LL) | MIC (organism code MM) | MIC (organism code NN) | MIC (organism code OO) | MIC (organism code PP) | MIC (organism code QQ) | MIC (organism code RR) | MIC (organism code SS) | MIC (organism code TT) | MIC (organism code UU) | also measured
1 | CC[C@H]1OC(=O)[C@H](C)C(=O)[C@H](C)[C@@H](O[C@@H]2O[C@H](C)C[C@H](N(C)C)[C@H]2O)[C@@](C)(OCC=Cc2cnc3ccc(C(=O)O)cc3c2)C[C@@H](C)C(=O)[C@H](C)[C@H]2NC(=O)O[C@@]21C [Example 214] | 6.2 µg/mL (≈ 7.65 µM) | 251 µg/mL (≈ 310 µM) | > 100 µg/mL | 12.5 µg/mL (≈ 15.4 µM) | 12.5 µg/mL (≈ 15.4 µM) | > 100 µg/mL | 25 µg/mL (≈ 30.9 µM) | 25 µg/mL (≈ 30.9 µM) | 6.2 µg/mL (≈ 7.65 µM) | 3.1 µg/mL (≈ 3.83 µM) | 1.56 µg/mL (≈ 1.93 µM) | 12.5 µg/mL (≈ 15.4 µM) | 25 µg/mL (≈ 30.9 µM) | 12.5 µg/mL (≈ 15.4 µM) | 12.5 µg/mL (≈ 15.4 µM) | > 100 µg/mL | 3.1 µg/mL (≈ 3.83 µM) | > 100 µg/mL | > 100 µg/mL | 100 µg/mL (≈ 123 µM) | MIC (organism code EE): 12.5 µg/mL (≈ 15.4 µM); MIC (organism code VV): 50 µg/mL (≈ 61.7 µM); MIC (organism code WW): 64 µg/mL (≈ 79 µM); MIC (organism code XX): 1 µg/mL (≈ 1.23 µM); MIC (organism code YY): 1 µg/mL (≈ 1.23 µM); MIC (organism code ZZ): > 128 µg/mL; MIC (organism code ZZA): 32 µg/mL (≈ 39.5 µM)
2 | CCC1OC(=O)C(C)C(=O)C(C)C(OC2OC(C)CC(N(C)C)C2O)C(C)(OCC=Cc2cnc3ccc(F)cc3c2)CC(C)C(=O)C(C)C2NC(=O)OC12C (stereo not shown) [Example 215, R is —CH2CH═CH-(6-fluoro-3-quinolyl)] | 0.05 µg/mL (≈ 0.0638 µM) | 0.1 µg/mL (≈ 0.128 µM) | > 100 µg/mL | 0.1 µg/mL (≈ 0.128 µM) | 0.1 µg/mL (≈ 0.128 µM) | > 100 µg/mL | 0.1 µg/mL (≈ 0.128 µM) | 0.05 µg/mL (≈ 0.0638 µM) | 0.01 µg/mL (≈ 0.0128 µM) | 0.01 µg/mL (≈ 0.0128 µM) | 0.01 µg/mL (≈ 0.0128 µM) | 0.78 µg/mL (≈ 0.995 µM) | 0.1 µg/mL (≈ 0.128 µM) | 0.01 µg/mL (≈ 0.0128 µM) | 0.2 µg/mL (≈ 0.255 µM) | 25 µg/mL (≈ 31.9 µM) | 0.2 µg/mL (≈ 0.255 µM) | > 100 µg/mL | > 100 µg/mL | 0.78 µg/mL (≈ 0.995 µM) | MIC (organism code EE): 0.1 µg/mL (≈ 0.128 µM); MIC (organism code VV): 0.02 µg/mL (≈ 0.0255 µM); MIC (organism code WW): 2 µg/mL (≈ 2.55 µM); MIC (organism code XX): 0.015 µg/mL (≈ 0.0191 µM); MIC (organism code YY): ≤ 0.004 µg/mL; MIC (organism code ZZ): 16 µg/mL (≈ 20.4 µM); MIC (organism code ZZA): 0.25 µg/mL (≈ 0.319 µM)
3 | CCC1OC(=O)C(C)C(=O)C(C)C(OC2OC(C)CC(N(C)C)C2O)C(C)(OCC=Cc2cnc3ccc(C(=O)OC)cc3c2)CC(C)C(=O)C(C)C2NC(=O)OC12C (stereo not shown) [Example 216, R is —CH2CH═CH-(6-methoxycarbonyl-3-quinolyl)] | 0.2 µg/mL (≈ 0.243 µM) | 0.2 µg/mL (≈ 0.243 µM) | > 100 µg/mL | 0.2 µg/mL (≈ 0.243 µM) | 0.2 µg/mL (≈ 0.243 µM) | > 100 µg/mL | 0.2 µg/mL (≈ 0.243 µM) | 0.05 µg/mL (≈ 0.0607 µM) | 0.01 µg/mL (≈ 0.0121 µM) | 0.02 µg/mL (≈ 0.0243 µM) | 0.02 µg/mL (≈ 0.0243 µM) | 0.78 µg/mL (≈ 0.947 µM) | 0.2 µg/mL (≈ 0.243 µM) | 0.05 µg/mL (≈ 0.0607 µM) | 0.1 µg/mL (≈ 0.121 µM) | 100 µg/mL (≈ 121 µM) | 0.39 µg/mL (≈ 0.473 µM) | > 100 µg/mL | > 100 µg/mL | 0.78 µg/mL (≈ 0.947 µM) | MIC (organism code EE): 0.2 µg/mL (≈ 0.243 µM); MIC (organism code VV): 0.1 µg/mL (≈ 0.121 µM); MIC (organism code WW): 2 µg/mL (≈ 2.43 µM); MIC (organism code XX): 0.015 µg/mL (≈ 0.0182 µM); MIC (organism code YY): 0.015 µg/mL (≈ 0.0182 µM); MIC (organism code ZZ): 0.5 µg/mL (≈ 0.607 µM); MIC (organism code ZZA): 0.25 µg/mL (≈ 0.303 µM)
4 | CCC1OC(=O)C(C)C(=O)C(C)C(OC2OC(C)CC(N(C)C)C2O)C(C)(OCC=Cc2cnc3ccc(C(N)=O)cc3c2)CC(C)C(=O)C(C)C2NC(=O)OC12C (stereo not shown) [Example 217, R is —CH2CH═CH-(6-aminocarbonyl-3-quinolyl)] | 0.2 µg/mL (≈ 0.247 µM) | 0.39 µg/mL (≈ 0.482 µM) | > 100 µg/mL | 0.39 µg/mL (≈ 0.482 µM) | 0.2 µg/mL (≈ 0.247 µM) | > 100 µg/mL | 0.39 µg/mL (≈ 0.482 µM) | 0.2 µg/mL (≈ 0.247 µM) | 0.02 µg/mL (≈ 0.0247 µM) | 0.02 µg/mL (≈ 0.0247 µM) | 0.02 µg/mL (≈ 0.0247 µM) | 0.78 µg/mL (≈ 0.964 µM) | 0.78 µg/mL (≈ 0.964 µM) | 0.1 µg/mL (≈ 0.124 µM) | 0.39 µg/mL (≈ 0.482 µM) | 50 µg/mL (≈ 61.8 µM) | 0.39 µg/mL (≈ 0.482 µM) | > 100 µg/mL | > 100 µg/mL | 12.5 µg/mL (≈ 15.5 µM) | MIC (organism code VV): 0.78 µg/mL (≈ 0.964 µM); MIC (organism code WW): 2 µg/mL (≈ 2.47 µM); MIC (organism code XX): 0.03 µg/mL (≈ 0.0371 µM); MIC (organism code YY): 0.03 µg/mL (≈ 0.0371 µM); MIC (organism code ZZ): 2 µg/mL (≈ 2.47 µM); MIC (organism code ZZA): 2 µg/mL (≈ 2.47 µM)
5 | CCC1OC(=O)C(C)C(=O)C(C)C(OC2OC(C)CC(N(C)C)C2O)C(C)(OCC=Cc2cnc3ccc(C#N)cc3c2)CC(C)C(=O)C(C)C2NC(=O)OC12C (stereo not shown) [Example 218, R is —CH2CH═CH-(6-cyano-3-quinolyl)] | 0.1 µg/mL (≈ 0.126 µM) | 0.1 µg/mL (≈ 0.126 µM) | > 100 µg/mL | 0.1 µg/mL (≈ 0.126 µM) | 0.1 µg/mL (≈ 0.126 µM) | > 100 µg/mL | 0.01 µg/mL (≈ 0.0126 µM) | 0.05 µg/mL (≈ 0.0632 µM) | 0.01 µg/mL (≈ 0.0126 µM) | 0.01 µg/mL (≈ 0.0126 µM) | 0.01 µg/mL (≈ 0.0126 µM) | 6.2 µg/mL (≈ 7.84 µM) | 0.2 µg/mL (≈ 0.253 µM) | 0.05 µg/mL (≈ 0.0632 µM) | 0.05 µg/mL (≈ 0.0632 µM) | 50 µg/mL (≈ 63.2 µM) | 0.39 µg/mL (≈ 0.493 µM) | > 100 µg/mL | > 100 µg/mL | 0.78 µg/mL (≈ 0.986 µM) | MIC (organism code EE): 0.1 µg/mL (≈ 0.126 µM); MIC (organism code VV): 0.05 µg/mL (≈ 0.0632 µM); MIC (organism code XX): 0.015 µg/mL (≈ 0.019 µM); MIC (organism code YY): 0.015 µg/mL (≈ 0.019 µM); MIC (organism code ZZ): 4 µg/mL (≈ 5.06 µM); MIC (organism code ZZA): 0.25 µg/mL (≈ 0.316 µM)
